Experiments:
acetylcholinesterase [1] = assay: Color change of the bioassay element against pesticides, judged by human eyes (FIG. 6); format: biochemical; details: color changes from yellow to yellowish
Excerpt: (§1) The bioassay element of the present invention is referred to FIG. 1 which illustrates the structure of bioassay element in one embodiment of the present invention. The bioassay element includes a carrier 100, an enzyme 110 as a testing material, and a coating film 120. The carrier includes a membrane 101 and a stationary layer 102 applying on the membrane 101. The enzyme 110 is dispersed in the coating film 120 that covers on the surface of the stationary layer 102. The coating film 120 effectively increases the amount of the immobilized enzyme 110 and raises the activity of the enzyme 110 and fixes the enzyme 110 on the surface of the carrier. In the working example of the present invention, the enzyme acetylcholinesterase is selected, and the coating film 120 consists of casein, calcium ions, a color developer (DTNB), and trehalose. The stationary layer 102 consists of casein and calcium ions.
If the inhibition of the enzyme activity is greater than 60%, the color will become colorless. To discriminate the color change by human eyes, the concentrations of trichlorfon and carbaryl are about 3 ppm, malathion and naled are about 1 ppm, carbafuran is about 0.1 ppm.

acetylcholinesterase [2] = assay: Inhibition of the immobilized enzyme of the bioassay element by pesticides (FIG. 5); format: biochemical; details: for detection sensitivity of the bioassay element (rank among five pesticides; carbofuran>naled>malathion>carbaryl=trichlorfon): at any same concentration
Excerpt: as §1
In the working example of the present invention, the stationary-layer mixed solution was prepared by mixing 120 mM of a calcium ion solution and 2.5% of a casein solution in a ratio of 1:14 by volume. The bioassay solution was prepared by mixing an enzyme solution and the mixed solution containing casein in a ratio of 5:7 by volume. The enzyme solution was prepared by mixing 1.52 U/μl of an enzyme and 5% of trehalose in a ratio of 2.61:108 by volume. The mixed solution containing casein was mixed with a color developer, 120 mM of a calcium ion solution and 4% of a casein solution in a ratio of (0.009 to 0.012):1:(6 to 7.75) (w/v/v).
The results of the inhibiting effect of several pesticides (with different concentrations) on the bioassay element of the present invention are referred to FIG. 5. […] At the same concentration, the higher inhibition represents that the enzyme has higher detection sensitivity to pesticide. […] Within the linear relationship between the concentration of each pesticide and the inhibition of the enzyme, a biosensor capable of quantitatively detecting pesticides in association with optical sensors can be designed.
Therefore, if the inhibition of the enzyme activity is greater than 30%, it should be very easy to distinguish the yellow-color level difference by human eyes. In addition, when the concentration of naled was greater than 3.5 ppm and the concentrations of malathion, trichlorfon and carbaryl were greater than 7 ppm, the inhibition of the enzyme activity would be greater than 60%. Thus, the color would become colorless.

Compound	concentration to discriminate the color change by human eyes (acetylcholinesterase [1])	detection sensitivity of the bioassay element (rank among five pesticides; carbofuran>naled>malathion>carbaryl=trichlorfon) (acetylcholinesterase [2])	inhibition of the enzyme activity (acetylcholinesterase [2]; pesticide concentration 1 ppm)	concentration dependence of inhibition of the enzyme activity (acetylcholinesterase [2])	inhibition of the enzyme activity (acetylcholinesterase [2]; pesticide concentration 3 ppm)	concentration range with linear relationship between pesticide concentration and inhibition of the enzyme activity (acetylcholinesterase [2])	pesticide concentration above which the increase of inhibition is plateau (acetylcholinesterase [2])	inhibition of the enzyme activity (acetylcholinesterase [2]; pesticide concentration about 0.1 ppm)
COP(=O)(OC)OC(Br)C(Cl)(Cl)Br (stereo not shown) [naled]	about 1 ppm	next	39%					
CNC(=O)Oc1cccc2ccccc12 [carbaryl]	about 3 ppm	lowest		increased with increasing concentrations	about 28%			
COP(=O)(OC)C(O)C(Cl)(Cl)Cl (stereo not shown) [trichlorfon]	about 3 ppm	lowest		increased with increasing concentrations	about 28%			
CCOC(=O)CC(SP(=S)(OC)OC)C(=O)OCC (stereo not shown) [malathion]	about 1 ppm	next	28%					
CNC(=O)Oc1cccc2c1OC(C)(C)C2 [carbofuran]	about 0.1 ppm	highest				0 to 0.1 ppm	greater than 0.1 ppm	65%

From patent US7883859B2, “Method for producing active and stable acetylcholinesterase bioassay element” (priority 2005, dated 2011)
